Data published in the supplement of paper PMC13380429.

Tests used:
Settings in all cases: 72 h
[1] = system: Caco-2; experiment: cell viability relative to DMSO; higher = less toxic
[2] = system: Calu-3; experiment: as above
[3] = system: HepG2; experiment: as above
[4] = system: U2OS; experiment: as above
[5] = system: Vero E6; experiment: as above
[6] = system: Caco-2; experiment: relative viability EC50 (midpoint between 100% and the lowest measured viability); higher = less toxic
[7] = system: Calu-3; experiment: as above
[8] = system: HepG2; experiment: as above
[9] = system: U2OS; experiment: as above
[10] = system: Vero E6; experiment: as above
[11] = system: Caco-2; experiment: drug sensitivity score (DSS) for viability; higher = more toxic; extreme values may be limits of the assay
[12] = system: Calu-3; experiment: as above
[13] = system: HepG2; experiment: as above
[14] = system: U2OS; experiment: as above
[15] = system: Vero E6; experiment: as above

SMILES | cell viability ([1]; 1 nM) | cell viability ([1]; 10 nM) | cell viability ([1]; 100 nM) | cell viability ([1]; 1000 nM) | cell viability ([1]; 10000 nM) | cell viability ([2]; 1 nM) | cell viability ([2]; 10 nM) | cell viability ([2]; 100 nM) | cell viability ([2]; 1000 nM) | cell viability ([2]; 10000 nM) | cell viability ([3]; 1 nM) | cell viability ([3]; 10 nM) | cell viability ([3]; 100 nM) | cell viability ([3]; 1000 nM) | cell viability ([3]; 10000 nM) | cell viability ([4]; 1 nM) | cell viability ([4]; 10 nM) | cell viability ([4]; 100 nM) | cell viability ([4]; 1000 nM) | cell viability ([4]; 10000 nM) | cell viability ([5]; 1 nM) | cell viability ([5]; 10 nM) | cell viability ([5]; 100 nM) | cell viability ([5]; 1000 nM) | cell viability ([5]; 10000 nM) | relative viability EC50 [6] | relative viability EC50 [7] | relative viability EC50 [8] | relative viability EC50 [9] | relative viability EC50 [10] | drug sensitivity score [11] | drug sensitivity score [12] | drug sensitivity score [13] | drug sensitivity score [14] | drug sensitivity score [15]
O=P(O)(O)C(O)(Cn1ccnc1)P(=O)(O)O [zoledronic-acid] | 98.2% | 95.1% | 96.8% | 93.2% | 91.6% | 110% | 100% | 91.9% | 93.4% | 97.7% | 101% | 98.7% | 95.2% | 97.7% | 94.1% | 96.5% | 96.2% | 100% | 99.3% | 97.2% | 99.7% | 104% | 100% | 98.9% | 99.3% | > 10 µM | > 10 µM | > 10 µM | > 10 µM | > 10 µM | 0 | 0 | 0 | 0 | 0
Cc1ncc(CN2CC=C(c3ccccc3)CC2)c(N)n1 [Ro-10-5824] | 102% | 105% | 96.8% | 97.1% | 96.8% | 103% | 95.6% | 103% | 99.5% | 99.5% | 91.8% | 104% | 108% | 115% | 112% | 101% | 95.3% | 102% | 95.8% | 96.9% | 92.7% | 108% | 88.5% | 99.2% | 108% | > 10 µM | > 10 µM | > 10 µM | > 10 µM | > 10 µM | 0 | 0 | 0 | 0 | 0
CC[C@@H](CO)NC(=O)[C@@H]1C=C2c3cccc4c3c(cn4C)C[C@H]2N(C)C1 [methysergide] | 95.9% | 89.6% | 100% | 94.3% | 110% | 88.7% | 99.1% | 102% | 97% | 102% | 94.8% | 96.9% | 102% | 102% | 111% | 101% | 96.1% | 100% | 92.3% | 98.7% | 96% | 100% | 91.9% | 99.7% | 111% | > 10 µM | > 10 µM | > 10 µM | > 10 µM | > 10 µM | 0 | 0 | 0 | 0 | 0
CCC(=O)NCC[C@@H]1CCc2ccc3c(c21)CCO3 [ramelteon] | 102% | 96.8% | 97.1% | 101% | 95.6% | 106% | 90.7% | 100% | 86.3% | 98.4% | 105% | 112% | 105% | 108% | 89% | 99.5% | 98.4% | 101% | 96.1% | 98.7% | 112% | 110% | 106% | 100% | 99.5% | > 10 µM | > 10 µM | > 10 µM | > 10 µM | > 10 µM | 0 | 0 | 0 | 0 | 0
CCN1C[C@H](C)n2c(c(O)c3c(=O)n(Cc4ccc(F)c(Cl)c4)nc(C(=O)NC)c32)C1=O [MK-2048] | 97.2% | 96% | 93.2% | 94.7% | 87.4% | 91.3% | 90.2% | 92.3% | 98.2% | 93.7% | 110% | 106% | 93.9% | 100% | 98.4% | 101% | 96.3% | 102% | 98.5% | 97.8% | 101% | 100% | 105% | 101% | 98% | > 10 µM | > 10 µM | > 10 µM | > 10 µM | > 10 µM | 0 | 0 | 0 | 0 | 0
Ic1cncc(OC[C@@H]2CCN2)c1 | 102% | 97.2% | 94% | 100% | 108% | 98.4% | 98.4% | 102% | 97% | 102% | 94% | 94% | 99.4% | 98% | 105% | 92.1% | 102% | 96.7% | 99.5% | 106% | 97.4% | 92.7% | 96.6% | 95.3% | 102% | > 10 µM | > 10 µM | > 10 µM | > 10 µM | > 10 µM | 0 | 0 | 0 | 0 | 0
CC1=C(CC(=O)O)c2cc(F)ccc2/C1=C\c1ccc([S+](C)[O-])cc1 (stereo not given) [sulindac] | 96% | 100% | 103% | 94.9% | 85.1% | 102% | 113% | 96.5% | 98% | 101% | 117% | 90.2% | 93.3% | 84% | 108% | 101% | 99.2% | 97.4% | 101% | 97.4% | 105% | 102% | 103% | 92.9% | 94.4% | > 10 µM | > 10 µM | > 10 µM | > 10 µM | > 10 µM | 0.6 | 0 | 0 | 0 | 0
O=C(Nc1cc(-c2ccccc2)nn1-c1ccccc1)c1ccc([N+](=O)[O-])cc1 [VU29] | 106% | 96.2% | 102% | 95% | 96.6% | 102% | 102% | 107% | 98.5% | 111% | 105% | 112% | 108% | 100% | 90.2% | 110% | 101% | 107% | 99% | 99% | 100% | 96.4% | 101% | 94.2% | 88.6% | > 10 µM | > 10 µM | > 10 µM | > 10 µM | > 10 µM | 0 | 0 | 0 | 0 | 0.2
O=C(O)c1cc(C(=O)O)c(C(=O)N(Cc2cccc(Oc3ccccc3)c2)[C@H]2CCCc3ccccc32)cc1C(=O)O | 106% | 99.1% | 90.4% | 99.8% | 103% | 102% | 98.8% | 103% | 104% | 106% | 98.5% | 106% | 102% | 107% | 98.4% | 102% | 94.4% | 99.4% | 91.3% | 109% | 98.2% | 102% | 96.9% | 98.9% | 102% | > 10 µM | > 10 µM | > 10 µM | > 10 µM | > 10 µM | 0 | 0 | 0 | 0 | 0
CCNC(=O)N1CCN(CCCC(c2ccc(F)cc2)c2ccc(F)cc2)CC1 [amperozide] | 96.5% | 96.6% | 85.6% | 94.1% | 81.4% | 97.6% | 103% | 95.7% | 106% | 94.4% | 98.5% | 102% | 91.9% | 103% | 93.7% | 97.5% | 103% | 94.4% | 100% | 95.3% | 98.7% | 98.6% | 100% | 99.2% | 94.1% | > 10 µM | > 10 µM | > 10 µM | > 10 µM | > 10 µM | 1 | 0 | 0 | 0 | 0
Cc1ncc(COP(=O)([O-])[O-])c(CN(CCN(CC(=O)O)Cc2c(COP(=O)([O-])O)cnc(C)c2O)CC(=O)O)c1O.[Mn].[Na+].[Na+].[Na+] [Mangafodipir (trisodium)] | 95.1% | 99.5% | 94.5% | 108% | 135% | 91.5% | 107% | 104% | 87.6% | 103% | 110% | 89.4% | 105% | 101% | 98.4% | 95.1% | 100% | 94.7% | 93.4% | 101% | 111% | 99.7% | 107% | 97% | 99.2% | > 10 µM | > 10 µM | > 10 µM | > 10 µM | > 10 µM | 0 | 0 | 0 | 0 | 0
COc1ccc2cccc(CCNC(C)=O)c2c1 [agomelatine] | 102% | 104% | 104% | 96.8% | 98% | 105% | 106% | 103% | 88.4% | 106% | 97.7% | 104% | 97.8% | 101% | 103% | 105% | 99% | 105% | 98.8% | 99.8% | 98% | 103% | 92.5% | 106% | 96.5% | > 10 µM | > 10 µM | > 10 µM | > 10 µM | > 10 µM | 0 | 0 | 0 | 0 | 0
CCN(CC)CCOCCOC(=O)C(CC)(CC)c1ccccc1 [oxelaidin] | 106% | 85.5% | 95.9% | 107% | 97.3% | 99% | 95.8% | 94.8% | 94.5% | 99.7% | 104% | 103% | 104% | 95.6% | 87.1% | 96.9% | 92.6% | 94.3% | 107% | 101% | 94.2% | 95.9% | 102% | 99.9% | 104% | > 10 µM | > 10 µM | > 10 µM | > 10 µM | > 10 µM | 0 | 0 | 0.3 | 0 | 0
CNC(=O)O[C@H]1COc2ccc(N3CCN(C4COC4)CC3)cc2[C@@H]1NC(=O)c1ccc(F)cc1 | 90.5% | 103% | 89.9% | 101% | 98.5% | 106% | 88.4% | 92.1% | 95.4% | 101% | 94.9% | 101% | 94.4% | 105% | 91.8% | 96.6% | 101% | 95.7% | 104% | 102% | 101% | 98.2% | 106% | 104% | 94.1% | > 10 µM | > 10 µM | > 10 µM | > 10 µM | > 10 µM | 0 | 0 | 0 | 0 | 0
